Non-standard residues stand in square brackets, D forms with d. No end group written: not given here.
What follows are sequences tested on autophagy (p62 degradation, LC3-I to LC3-II conversion) (assay: Biochemical autophagy assays: western blot detection of p62 and of the conversion of LC3-I into LC3-II). Settings: 10 micromolar; western blot; compared to 10 micromolar Tat-Beclin 1 compound.
Type: cell-based
Procedure: Autophagy can be detected directly, indirectly or inferentially by conventional assays, such as disclosed and/or exemplified herein, including biochemically (by assessing the generation of Atg8-PE or LC3-II or the degradation of p62) or microscopically (e.g. by observing the localization pattern of fluorescently tagged Atg8 or LC3).
To further assess the components of the beclin 1 peptide required for autophagy-inducing activity, a series of shorter peptides were developed. Activity was measured by biochemical autophagy assays including western blot detection of p62 (a protein degraded by autophagy) and western blot detection of the conversion of LC3-I into LC3-II (the lipidated autophagosome-associated form of LC3).

| Sequence | LC3-II conversion | p62 degradation |
| --- | --- | --- |
| VFNATFEIWHD [Wild-type (wt)] | increased LC3-II conversion | increased p62 degradation |

Same assay, conditions: relative to the wild-type (wt) peptide; all peptides carry the 11 amino acid HIV TAT PTD and diglycine linker

| Sequence | Activity (autophagy inducing activity) |
| --- | --- |
| CFNATFEIWHD ({Tat PTD}-GGCFNATFEIWHD) [Mutant 1, HIV TAT PTD-diglycine fusion peptide] | ~wt |
| DHWIHFTANWV ([dD][dH][dW][dI][dH][dF][dT][dA][dN][dW][dV]; also: fused to TAT PTD via diglycine linker) [Mutant 30, D-retro-inverso counterpart of Mutant 17, with TAT PTD and diglycine linker] | >>wt |
| FNATFEIWH (HIV TAT PTD and diglycine linker fused) [Mutant 26, HIV TAT PTD-diglycine fusion peptide] | >>wt |
| FNATFEIWHD (HIV TAT PTD and diglycine linker fused) [Mutant 21, HIV TAT PTD-diglycine fusion peptide] | >wt |
| VFDATFEIWHD ({Tat PTD}-GGVFDATFEIWHD) [Mutant 3, HIV TAT PTD-diglycine fusion peptide] | <<wt |
| VFNACFEIWHD (HIV TAT PTD and diglycine linker fused) [Mutant 5, HIV TAT PTD-diglycine fusion peptide] | <wt |
| VFNATFDIWHD (HIV TAT PTD and diglycine linker fused) [Mutant 7, HIV TAT PTD-diglycine fusion peptide] | ~wt |
| VFNATFEFWHD (HIV TAT PTD and diglycine linker fused) [Mutant 18, HIV TAT PTD-diglycine fusion peptide] | ~wt |
| VFNATFEIFHD (HIV TAT PTD and diglycine linker fused) [Mutant 9, HIV TAT PTD-diglycine fusion peptide] | ~wt |
| VFNATFEIWH (HIV TAT PTD and diglycine linker fused) [Mutant 25, HIV TAT PTD-diglycine fusion peptide] | >wt |
| VFNATFEIWHD [Wild-type (wt)] | wt |
| VFNATFEIWHE (HIV TAT PTD-diglycine fusion) [Mutant 11, HIV TAT PTD-diglycine fusion peptide] | ~wt |
| VFNATFEIWYD (HIV TAT PTD-diglycine fusion) [Mutant 10, HIV TAT PTD-diglycine fusion peptide] | ~wt |
| VFNATFELWHD (HIV TAT PTD and diglycine linker fused) [Mutant 8, HIV TAT PTD-diglycine fusion peptide] | >wt |
| VFNATFEMWHD (HIV TAT PTD-diglycine fusion) [Mutant 16, HIV TAT PTD-diglycine fusion peptide] | ~wt |
| VFNATFERWHD (HIV TAT PTD and diglycine linker fused) [Mutant 20, HIV TAT PTD-diglycine fusion peptide] | ~wt |
| VFNATFEVWHD (HIV TAT PTD-diglycine fusion) [Mutant 14, HIV TAT PTD-diglycine fusion peptide] | ~wt |
| VFNATFEYWHD (HIV TAT PTD and diglycine linker fused) [Mutant 19, HIV TAT PTD-diglycine fusion peptide] | ~wt |
| VFNATWEIWHD (HIV TAT PTD and diglycine linker fused) [Mutant 6, HIV TAT PTD-diglycine fusion peptide] | <wt |
| VFNSTFEIWHD ({Tat PTD}-GGVFNSTFEIWHD) [Mutant 4, HIV TAT PTD-diglycine fusion peptide] | <<wt |
| VLNATFEIWHD (HIV TAT PTD-diglycine fusion) [Mutant 15, HIV TAT PTD-diglycine fusion peptide] | ~wt |
| VWNATFEIWHD ({Tat PTD}-GGVWNATFEIWHD) [Mutant 2, HIV TAT PTD-diglycine fusion peptide] | >wt |
| VWNATFELWHD (HIV TAT PTD-diglycine fusion) [Mutant 12, HIV TAT PTD-diglycine fusion peptide] | ~wt |
| VWNATFHIWH (HIV TAT PTD and diglycine linker fused) [Mutant 28, HIV TAT PTD-diglycine fusion peptide] | >>wt |
| VWNATFHIWHD (HIV TAT PTD-diglycine fusion) [Mutant 17, HIV TAT PTD-diglycine fusion peptide] | >>wt |
| VYNATFEIWHD (HIV TAT PTD-diglycine fusion) [Mutant 13, HIV TAT PTD-diglycine fusion peptide] | <wt |
| WNATFHIWH (HIV TAT PTD and diglycine linker fused) [Mutant 27, HIV TAT PTD-diglycine fusion peptide] | >>wt |
| WNATFHIWHD (HIV TAT PTD and diglycine linker fused) [Mutant 29, HIV TAT PTD-diglycine fusion peptide] | >>wt |

Source: patent publication US10300106B2, “Autophagy-inducing peptide analogs” (Board of Regents, The University of Texas System, priority 2013, dated 2019)
